Assay results taken from publication PMC5770468, “Cardiac glycoside/aglycones inhibit HIV-1 gene expression by a mechanism requiring MEK1/2-ERK1/2 signaling” (Scientific Reports, 2018).

What was measured:
[1] = tested on: Tra2β; assay: Immunoblot of Tra2β in HeLa rtTA-HIV-ΔMls cells; assay type: cell-based, human; details: 3 d with ~IC50s of CSs
Description: Figure 4 CSs suppress HIV-1 gene expression by altering viral RNA processing. […] (a,b) CSs induce oversplicing of HIV-1 RNAs (n ≥ 3, mean, s.e.m.). (a) Diagram of the primer positions (arrow heads) used for qRT-PCR. (b) Graph of the relative amount of US (black), SS (white), and MS (gray) HIV-1 RNAs in cells treated with various CSs. (c) Nuclear export of HIV-1 US RNAs in cells is altered by CSs (representative n ≥ 4). HIV-1 US RNAs were localized by FISH after treating HeLa rtTA-HIV(Gag-GFP) cells as described above but with ~IC90s of CSs. Nuclei were stained by DAPI and images captured at 630 × magnification. […] SRp20, Tra2β, and tubulin were analyzed by immunoblot of HeLa rtTA-HIV-ΔMls cells treated as described above except cells of this representative blot were treated 3 d with ~IC50s of CSs. […]
To monitor HIV-1 gene expression or replication, Gag release into cell culture supernatants were assayed by ELISA using a p24^CA antigen capture assay kit (AIDS & Cancer Virus Program, NCI-Frederick, Frederick, MD USA). […] For analysis of HIV-1 and SR protein expression (and phosphorylation states with calf intestinal alkaline phosphatase treatments), cells were lysed and analyzed by western blot as previously outlined. […] Activation of MAPKs was determined by western blot quantitation and calculation of phospho/total protein levels. […]

[2] = tested on: HeLa rtTA-HIV-ΔMls cells; assay type: cell-based, human; details: XTT
Method: Drug/compounds were tested for effects on HIV-1 gene expression using inducible Tet-ON HIV-1 cell lines [HeLa rtTA-HIV-ΔMls or rtTA-HIV(Gag-GFP)] containing a HIV-1 (LAI) provirus activatable by Dox or tetracycline transactivator (tTA)[69]. The rtTA-HIV-ΔMls provirus was modified and used as previously reported[9]–[11],[70]. The rtTA-HIV(Gag-GFP) provirus was generated by deletion of the PR and RT coding regions within pol and insertion of GFP to the 3′ of gag, creating GFP fused to the C-terminal of Gag. After 4 h of drug/compound treatment, HIV-1 gene expression was activated with Dox (2 μg/mL) or tTA (described below). Equal concentrations of DMSO were present in each experiment. After ~20 h, cells and media were harvested to monitor the effects of drug/compound treatments as described below. HIV-1 gene expression was quantified via p24^CA ELISA or monitoring Gag-GFP fluorescence in cells as described below. In parallel, cell viability of treatments were assessed by XTT assay (Sigma-Aldrich, #TOX2). For confirmatory tests, the CD4^+ HIV-1 T-cell line, 24ST1NLESG, from J. Dougherty, was treated with drug/compounds and HIV-1 gene expression activated by 1.8 µM of phorbol 12-myristate 13-acetate (PMA) as previously described[10],[11],[71].
Supplementary Figure S2. CSs inhibit HIV-1 gene expression in a dose-dependent manner. […]

SMILES | abundance of a modified species of Tra2β [1] | toxicity ([2]; at 1000 nM) | CC20 (cytotoxic effects ≥20%) [2]
CC(=O)O[C@H]1C[C@H](O[C@H]2[C@@H](O)C[C@H](O[C@H]3[C@@H](O)C[C@H](O[C@H]4CC[C@@]5(C)[C@H](CC[C@@H]6[C@@H]5C[C@@H](O)[C@]5(C)[C@@H](C7=CC(=O)OC7)CC[C@]65O)C4)O[C@@H]3C)O[C@@H]2C)O[C@H](C)[C@H]1O[C@@H]1O[C@H](CO)[C@@H](O)[C@H](O)[C@H]1O [Lanatoside C] | no effect |  | 
C[C@]12CC[C@H](O)C[C@H]1CC[C@@H]1[C@@H]2CC[C@]2(C)[C@@H](C3=CC(=O)OC3)CC[C@]12O [Digitoxigenin] | no effect | no toxicity | 
C[C@]12CC[C@H](O)C[C@H]1CC[C@@H]1[C@@H]2C[C@@H](O)[C@]2(C)[C@@H](C3=CC(=O)OC3)CC[C@]12O [Digoxigenin] |  |  | 0.6 µM
